Values joined by “and” are separate entries in the source; they are usually repeats but may differ in a detail not shown here. Equal entries are not always repeated.
Test system: slaughterhouse oocytes fertilized with sex sorted sperm
Assay: IVF: development of eggs fertilized with OSR treated sex sorted sperm
Format: cell-based, bovine
Conditions: 3 step
Method: 1. Oocyte Collection. Collect slaughterhouse oocytes, wash 1× with about 3 mL Hepes washing media and with 1× with TCM-199 (Invitrogen, Carlsbad, Calif.)+10% Fetal Bovine Serum (FBS). Culture in maturation media for 22 hrs in a CO2 incubator at 38.5° C. In one embodiment, the maturation media contains TCM-199, FBS, pyruvate, chorionic gonadotropin (e.g., Chorulon (Intervet, Summit N.J.)), follicle stimulating hormone (FSH) (e.g., Folltropin (Bioniche, Belleville, Canada)), estradiol, and at least one antibiotic. In a further embodiment, Amikacin (Sigma-Aldrich, St. Louis, Mo.) can be used as the antibiotic. In another embodiment, the maturation media may also comprise luteinizing hormone.
2. In Vitro Fertilization. Trim away cumulus cells from matured oocytes. Transfer them to a fertilization dish and return to the CO2 incubator. Thaw frozen semen straws using standard procedures, centrifuge in […], of Pure Sperm gradient (Nidacon, Molndal, Sweden), or a percoll or similar gradient at 2500 RPM for 10 minutes to remove egg components, glycerol and other debris. Remove supernatant, leaving a loose pellet of live sperm. Combine pellets using a small amount of fertilization media and repellet at 1500 RPM for 3 minutes. Carefully remove supernatant. Then gently mix the pellet. After determining the desired insemination dose, inseminate the oocytes by adding sperm to the pellet, then culture in a dish and return to the CO2 incubator for about 18-22 hours.
3. In Vitro Culture. Remove presumptive zygotes from the fertilization dish and transfer into a sterile 1.5 mL eppendorf tube. Allow zygotes to form a loose pellet and remove excess media to form a 1:1 ratio of pellet and solution. Rinse the eppendorf tube with TCM-199, place contents into a dish and wash with BSA media. Then culture presumptive zygotes (discard disfigured oocytes, as well as oocytes with yellow colored cytoplasm or vacuolated cytoplasm) in a dual gas incubator (5% CO2, 5% O2) at 38.5° C. for about 48 hours.
4. Co-Culture. Transfer cleaved zygotes to co-culture dishes comprising the cumulus cells from the mature oocytes and FBS media topped with mineral oil, and incubate in a CO2 incubator at 38.5° C. until needed.
An experiment was designed to test the effect of OSR treated sperm cells on the development of eggs fertilized with those sperm cells. In this experiment, bull semen from two bulls was sex sorted with flow cytometry, with vitamin B12 present at equal concentrations in the media used to stain the sperm cells, in the catch fluid of the collecting vessel and in the cryoprotectant extender prior to freezing the sex sorted sample (3 step). For each bull, three different concentrations of vitamin B12 were tested: 0.05 mg/ml, 0.15 mg/ml and 0.25 mg/ml. The control samples were not treated with vitamin B12.
Slaughterhouse oocytes were collected and washed 1× with about 3 mL Hepes washing media and with 1× with TCM-199+10% FBS. The oocytes were then cultured in maturation media for 22 hrs in a CO2 incubator at 38.5° C. Cumulus cells were trimmed away from matured oocytes, transferred to a fertilization dish, and returned to the CO2 incubator.
Frozen semen straws were thawed using standard procedures and centrifuged in […], of Pure Sperm gradient at 2500 RPM for 10 minutes in order to remove egg, glycerol and other debris. The supernatant was removed, leaving a loose pellet of live sperm. Pellets were combined using a small amount of fertilization media and repelleted at 1500 RPM for 3 minutes. The supernatant was then carefully removed and the pellet gently mixed. After determining the desired insemination dose, the matured oocytes were then inseminated by adding sperm to the pellet, cultured in a dish and returned to the CO2 incubator for about 18-22 hours.
Presumptive zygotes were removed from the fertilization dish and transferred into a sterile 1.5 ml eppendorf tube. […]

[1] = 0.05 mg/ml, Table 4 replicates, Bulls A, B
[2] = 0.5 mg/ml, Table 5 Total/Avg per bull (A Holstein, B Jersey), Holstein bull
[3] = 0.5 mg/ml, Table 5 Total/Avg per bull (A Holstein, B Jersey), Jersey bull
[4] = 0.5 mg/ml, Table 5 replicates, Bull A (Holstein), Bull B (Jersey), Holstein bull
[5] = 0.5 mg/ml, Table 5 replicates, Bull A (Holstein), Bull B (Jersey), Jersey bull

vitamin B12
4-2C, Total/Avg (0.05 mg/ml, Table 4 Total/Avg per bull (A, B)): 66 and 63 | 4-2C (zygotes at 2 cell to 4 cell transition 48 hours after IVF) [1]: 20 (2×) and 26 and 18 and 23 and 22 | 8C % (zygotes having 8 cells 48 hours after IVF) [1]: 3.4% and 9.5% and 11.7% and 44.4% and 29.3% and 29.0% | 8C (zygotes with 8 cells 48 hours after IVF) [1]: 3 and 9 and 11 and 40 and 27 (2×) | % Clv (percent cleaved 48 hours after IVF) [1]: 26.4% and 36.8% and 33.0% and 64.4% and 54.3% and 52.7% | Blast % (cultured zygotes resulting in blastocyst formation) [1]: 1.1% and 2.1% and 4.3% and 21.1% and 16.3% and 22.6% | C1 (expanded, hatching and hatched blastocysts 7 days after IVF) [1]: 0 (2×) and 1 and 2 and 4 and 5 | C1− (blastocysts 7 days after IVF) [1]: 0 (2×) and 3 (2×) and 4 and 2 | C2 (early blastocysts and compact morulas 7 days after IVF) [1]: 1 (3×) and 13 (2×) and 9 | Hatch # (embryos shedding the zona, 8.5 days after IVF) [1]: 0 and 1 (2×) and 9 and 7 and 8 | Hatch % (embryos that shed the zona) [1]: 0.0% and 50.0% and 25.0% and 47.4% and 46.7% and 38.1% | Total Embs (total number of blastocysts) [1]: 1 and 2 and 4 and 19 and 15 and 21 | 4-2C, Total/Avg [2]: 72 | 8C %, Total/Avg [2]: 35.1% | 8C, Total/Avg [2]: 99 | C1−, Total/Avg [2]: 17 | C2, Total/Avg [2]: 18 | Hatch #, Total/Avg [2]: 16 | Total Embs, Total/Avg [2]: 41 | 4-2C, Total/Avg [3]: 86 | 8C %, Total/Avg [3]: 35.4% | 8C, Total/Avg [3]: 104 | C1−, Total/Avg [3]: 22 | C2, Total/Avg [3]: 13 | Hatch #, Total/Avg [3]: 20 | Total Embs, Total/Avg [3]: 52 | 4-2C (zygotes at 2 cell to 4 cell transition 48 hours after IVF) [4]: 25 and 29 and 18 | 8C % (zygotes having 8 cells 48 hours after IVF) [4]: 36.2% and 31.6% and 37.6% | 8C (zygotes with 8 cells 48 hours after IVF) [4]: 34 and 30 and 35 | % Clv (percent cleaved 48 hours after IVF) [4]: 62.8% and 62.1% and 57.0% | Blast % (cultured zygotes resulting in blastocyst formation) [4]: 6.4% and 15.8% and 21.5% | C1 (expanded, hatching and hatched blastocysts 7 days after IVF) [4]: 0 and 1 and 5 | C1− (blastocysts 7 days after IVF) [4]: 3 and 7 (2×) | C2 (early blastocysts and compact morulas 7 days after IVF) [4]: 3 and 7 and 8 | Hatch # (embryos shedding the zona, 8.5 days after IVF) [4]: 1 and 4 and 11 | Hatch % (embryos that shed the zona) [4]: 16.7% and 26.7% and 55.0% | Total Embs (total number of blastocysts) [4]: 6 and 15 and 20 | 4-2C (zygotes at 2 cell to 4 cell transition 48 hours after IVF) [5]: 40 and 31 and 15 | 8C % (zygotes having 8 cells 48 hours after IVF) [5]: 34.0% and 25.3% and 46.5% | 8C (zygotes with 8 cells 48 hours after IVF) [5]: 34 and 24 and 46 | % Clv (percent cleaved 48 hours after IVF) [5]: 74.0% and 57.9% and 61.6% | Blast % (cultured zygotes resulting in blastocyst formation) [5]: 11.0% and 24.2% and 18.2% | C1 (expanded, hatching and hatched blastocysts 7 days after IVF) [5]: 4 and 5 and 8 | C1− (blastocysts 7 days after IVF) [5]: 6 and 11 and 5 | C2 (early blastocysts and compact morulas 7 days after IVF) [5]: 1 and 7 and 5 | Hatch # (embryos shedding the zona, 8.5 days after IVF) [5]: 5 and 6 and 9 | Hatch % (embryos that shed the zona) [5]: 45.5% and 26.1% and 50.0% | Total Embs (total number of blastocysts) [5]: 11 and 23 and 18

From US10226041B2, “Compositions and methods for improving the quality of processed sperm” (Inguran, LLC, priority 2011, dated 2019)
